The values below are quoted from earlier work in patent publication US20070231312A1, “NUTRITIONAL SUPPLEMENT FOR PREGNANT FEMALES” (priority 2006, published 2007).

Data set [1] deals with women at high risk for developing preeclampsia. To be noted: treatment group; 1000 μg. per day for 6 to 8 weeks during late gestation; placebo 22.7%.
For data set [2] the following is noted: supplementation in pregnancy.
The subject of the next data set is primigravida women. The note with it: 2 mg. twice daily beginning at 16-20 wks; placebo 17.7%, P<0.05.
The subject of the next data set is glutathione peroxidase. To be noted: placental homogenates from late human gestation.
Data set [3] has as its system oxidative mitochondrial damage. To be noted: in vitro studies, ischemia reperfusion model.

With `COC(=O)[C@@H](N)CCCNC(=N)N[N+](=O)[O-]` [L-NAME, N^G-nitro-L-arginine methyl ester], the “effects on blood pressure, fetal growth and proteinuria” value in the data set on pregnant rats is “elevated blood pressure, fetal retarded growth and proteinuria”.
On to `[Se]` [Selenium], for which the “incidence of pregnancy-induced hypertension” value in data set [1] is 7.7%.
On to `CC1=C(/C=C/C(C)=C/C=C/C(C)=C/C=C/C=C(C)/C=C/C=C(C)/C=C/C2=C(C)CCCC2(C)C)C(C)(C)CCC1` [beta-carotene], for which the “level in maternal serum” value in data set [2] is “increase”.
As for `CC(C)=CCC/C(C)=C/C=C/C(C)=C/C=C/C(C)=C/C=C/C=C(C)/C=C/C=C(C)/C=C/C=C(\C)CCC=C(C)C` [lycopene, Lycopene], the women developing preeclampsia with primigravida women is reported as 8.6%.
Turning to `COc1ccc2[nH]cc(CCNC(C)=O)c2c1` [melatonin, Melatonin], the glutathione peroxidase activity entry in the data set on glutathione peroxidase is listed as “reduction”. Moreover, the “protection against oxidative mitochondrial damage” value in data set [3] is “protects against oxidative mitochondrial damage”.
